From patent US20220380319A1 (Bial - R&D Investments, S.A., priority 2019, published 2022) come the findings set out here.

Structures are written as SMILES. In brackets after ≈: the same amount, converted by molar mass. A value given as a limit tells only on which side of the number the result lay.

In one series the target is T1, acid ceramidase (Homo sapiens, UniProt Q13510).
T1 construct: Cell lysates overexpressing acid ceramidase were used as the enzyme source; expressed in transfected cells
T1 sequence (Q13510 22-395): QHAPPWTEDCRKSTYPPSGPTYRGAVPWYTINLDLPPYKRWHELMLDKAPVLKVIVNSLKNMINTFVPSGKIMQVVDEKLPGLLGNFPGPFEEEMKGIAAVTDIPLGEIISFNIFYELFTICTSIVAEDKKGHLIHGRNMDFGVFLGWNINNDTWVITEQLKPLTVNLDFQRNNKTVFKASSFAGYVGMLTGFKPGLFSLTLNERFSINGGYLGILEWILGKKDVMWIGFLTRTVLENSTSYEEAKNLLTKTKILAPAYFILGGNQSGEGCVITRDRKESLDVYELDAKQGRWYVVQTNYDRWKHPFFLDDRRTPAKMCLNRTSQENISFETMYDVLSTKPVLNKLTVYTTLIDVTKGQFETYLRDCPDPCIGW
The experiment in a line: Acid ceramidase inhibition, biochemical fluorescent assay with cell lysates overexpressing acid ceramidase, substrate Rbm14-12. Conditions: substrate Rbm14-12 6.3 μM. The procedure, abridged: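 IC50 derived by four-parameter fitting of fluorescence (ex360 nm, em446 nm) produced after 1 hr in methanol/NaIO4/glycine stop buffer, pH 10.6. Reaction: 6.3 μM Rbm14-12, 1 hr RT, following 1 hr RT compound preincubation with 10 μg overexpressing-cell lysate protein in pH 4.5 NaAC/NaCl buffer.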

Series [1] in a line: Compound solubility in water.
Where [2] appears, read: pH 4.5, 1 hr preincubation at RT.

Consider `COc1nc2ccc(N3CCOCC3)cc2n1C(=O)NCCCCc1ccccc1` [Example 133a, 2-Methoxy-6-morpholino-N-(4-phenylbutyl)-1H-benzo[d]imidazole-1-carboxamide], for which, on acid ceramidase (setting [2]), the IC50 (in general, the concentration that inhibits the measured activity by half) was less than 200 nM. For the same compound, in series [1], the concentration in solution (solubility) came to 1 µg/mL (≈ 2.45 µM).

Turning to `CC(C)CCNC(=O)n1cnc2c(N3CCN(CC4CC4)CC3)cccc21` [Example 152, 4-(4-(Cyclopropylmethyl)piperazin-1-yl)-N-iso-pentyl-1H-benzo[d]imidazole-1-carboxamide], at acid ceramidase (setting [2]), the IC50 was in the range of 200 to 1000 nM. For the same compound, the solubility (usually how much of the substance goes into solution per volume) in series [1] worked out at 20 µg/mL (≈ 54.1 µM).

As to `CN1CC(N2CCN(c3cccc4c3ncn4C(=O)NCCOc3ccccc3)CC2)C1` [Example 296, 4-(4-(1-Methylazetidin-3-yl)piperazin-1-yl)-N-(2-phenoxyethyl)-1H-benzo[d]imidazole-1-carboxamide], at acid ceramidase (pH 4.5), the IC50 was less than 200 nM. The solubility in series [1] came to 36 µg/mL (≈ 82.8 µM).

In the case of `CN1CCN(C2CN(c3cccc4c3ncn4C(=O)NCCCc3ccccc3)C2)CC1` [Example 276, 4-(3-(4-Methylpiperazin-1-yl)azetidin-1-yl)-N-(3-phenylpropyl)-1H-benzo[d]imidazole-1-carboxamide], the IC50 against acid ceramidase (pH 4.5) is less than 200 nM. This compound registered a solubility in series [1] of 28 µg/mL (≈ 64.7 µM).

Regarding `O=C(NCCCc1ccccc1)n1cnc2c(N3CCOCC3)cccc21` [Example 142, 4-Morpholino-N-(3-phenylpropyl)-1H-benzo[d]imidazole-1-carboxamide], the IC50 on acid ceramidase (setting [2]) is less than 200 nM. Also, the solubility in series [1] was found to be 1.4 µg/mL (≈ 3.84 µM).

In turn, `CN1CC(N2CCN(c3cccc4c3ncn4C(=O)NCC#Cc3ccccc3)CC2)C1` [Example 333, 4-(4-(1-Methylazetidin-3-yl)piperazin-1-yl)-N-(3-phenylprop-2-yn-1-yl)-1H-benzo[d]imidazole-1-carboxamide] displayed an IC50 at acid ceramidase (pH 4.5) of less than 200 nM. The compound further displayed a solubility in series [1] of 26 µg/mL (≈ 60.7 µM).

`COc1nc2c(C3CCN(C)CC3)cccc2n1C(=O)NCCc1ccccc1` [Example 33, 2-Methoxy-4-(1-methylpiperidin-4-yl)-N-phenethyl-1H-benzo[d]imidazole-1-carboxamide]: on acid ceramidase (setting [2]), the IC50 lay in the range of 200 to 1000 nM. The compound further had a solubility in series [1] of 27 µg/mL (≈ 68.8 µM).

On acid ceramidase (pH 4.5), `CC(C)C#CCNC(=O)n1cnc2c(N3CCN(C4COC4)CC3)cccc21` [Example 307, N-(4-Methylpent-2-yn-1-yl)-4-(4-(oxetan-3-yl)-piperazin-1-yl)-1H-benzo[d]imidazole-1-carboxamide] had an IC50 of less than 200 nM. The compound also displayed a solubility in series [1] of 20 µg/mL (≈ 52.4 µM).

For `CN1CCN(CCOc2nc3ccccc3n2C(=O)NCCC#Cc2ccccc2)CC1` [Example 363, 2-(2-(4-Methylpiperazin-1-yl)ethoxy)-N-(4-phenylbut-3-yn-1-yl)-1H-benzo[d]imidazole-1-carboxamide], the IC50 at acid ceramidase (setting [2]) is less than 200 nM. Further, the solubility in series [1] came to 28 µg/mL (≈ 64.9 µM).

As to `CN1CC(c2cccc3c2ncn3C(=O)NCCCc2ccccc2)C1` [Example 270, 4-(1-Methylazetidin-3-yl)-N-(3-phenylpropyl)-1H-benzo[d]imidazole-1-carboxamide], the concentration for half-maximal inhibition (IC50) against acid ceramidase (pH 4.5) was less than 200 nM. Also, the concentration in solution in series [1] (solubility) came to 32 µg/mL (≈ 91.8 µM).

Compound `CN1CCC(c2cccc3c2ncn3C(=O)NCCOc2ccccc2)CC1` [Example 45, 4-(1-Methylpiperidin-4-yl)-N-(2-phenoxyethyl)-1H-benzo[d]imidazole-1-carboxamide] yielded an IC50 at acid ceramidase (setting [2]) of less than 200 nM. This compound had a solubility in series [1] of 23.5 µg/mL (≈ 62.1 µM).

In turn, `CN1CC(N2CC3CC2CN3c2cccc3c2ncn3C(=O)NCCOc2ccccc2)C1` (stereo not shown) [Example 328, 4-(5-(1-Methylazetidin-3-yl)-2,5-diazabicyclo[2.2.1]heptan-2-yl)-N-(2-phenoxyethyl)-1H-benzo[d]imidazole-1-carboxamide] yielded an IC50 against acid ceramidase (pH 4.5) of less than 200 nM. The compound further registered a solubility in series [1] of 41 µg/mL (≈ 91.8 µM).

Take `CN1CC(N2CCN(c3cccc4c3ncn4C(=O)NCCc3ccccc3)CC2)C1` [Example 325, 4-(4-(1-Methylazetidin-3-yl)piperazin-1-yl)-N-phenethyl-1H-benzo[d]imidazole-1-carboxamide]: the IC50 on acid ceramidase (pH 4.5) is less than 200 nM. The same compound came in with a solubility in series [1] of 32 µg/mL (≈ 76.5 µM).

Turning to `COc1nc2ncccc2n1C(=O)NCCCCc1ccccc1` [Example 61, 2-Methoxy-N-(4-phenylbutyl)-1H-imidazo[4,5-b]pyridine-1-carboxamide], at acid ceramidase (setting [2]), the IC50 was less than 200 nM. The compound further displayed a solubility in series [1] of 1 µg/mL (≈ 3.08 µM).

In turn, `CC(=O)N1CCN(c2cccc3c2ncn3C(=O)NCCCCC(C)C)CC1` [Example 223, 4-(4-Acetylpiperazin-1-yl)-N-(5-methylhexyl)-1H-benzo[d]imidazole-1-carboxamide] displayed an IC50 against acid ceramidase (pH 4.5) of less than 200 nM. Moreover, the concentration in solution in series [1] (solubility) was 15 µg/mL (≈ 38.9 µM).

The compound `CC(C)CNC(=O)n1cnc2ccc(-c3cncnc3)cc21` [Example 16b, N-iso-Butyl-6-(pyrimidin-5-yl)-1H-benzo[d]imidazole-1-carboxamide] gave an IC50 against acid ceramidase (setting [2]) of less than 200 nM. In addition, the concentration in solution in series [1] (solubility) came to 18.3 µg/mL (≈ 62 µM).

For the compound `COc1cc2c(cc1N1CCOCC1)ncn2C(=O)NCCc1ccccc1` [Example 38b, 6-methoxy-5-morpholino-N-phenethyl-1H-benzo[d]imidazole-1-carboxamide], the IC50 at acid ceramidase (setting [2]) is less than 200 nM. In series [1], this compound displayed a solubility of 18.3 µg/mL (≈ 48.1 µM).

`CN1CCC2(CC1)CN(c1cccc3c1ncn3C(=O)NCCC#Cc1ccccc1)C2` [Example 366, 4-(7-Methyl-2,7-diazaspiro[3.5]nonan-2-yl)-N-(4-phenylbut-3-yn-1-yl)-1H-benzo[d]imidazole-1-carboxamide] registered an IC50 against acid ceramidase (setting [2]) of less than 200 nM. The solubility in series [1] came to 21 µg/mL (≈ 49.1 µM).

`O=C(NCCc1ccccc1)n1c(=O)[nH]c2cccnc21` [Example 124, 2-Oxo-N-phenethyl-1H-imidazo[4,5-b]pyridine-3(2H)-carboxamide]: the IC50 against acid ceramidase (setting [2]) was greater than 1000 nM. In series [1], this compound returned a solubility of 4 µg/mL (≈ 14.2 µM).

With `COc1ccnc2c1ncn2C(=O)NCCc1ccccc1` [Example 50, 7-Methoxy-N-phenethyl-3H-imidazo[4,5-b]pyridine-3-carboxamide], the IC50 on acid ceramidase (setting [2]) fell in the range of 200 to 1000 nM. The compound also returned a solubility in series [1] of 9.5 µg/mL (≈ 32.1 µM).

In the case of `COc1ccccc1C#CCNC(=O)n1cnc2c(N3CCN(C)CC3)cccc21` [Example 341, N-(3-(2-Methoxyphenyl)prop-2-yn-1-yl)-4-(4-methylpiperazin-1-yl)-1H-benzo[d]imidazole-1-carboxamide], the IC50 against acid ceramidase (setting [2]) was less than 200 nM. The compound also displayed a solubility in series [1] of 20 µg/mL (≈ 49.6 µM).

Consider `CN1CCN(c2cccc3c2ncn3C(=O)NCC#Cc2ccccc2)CC1` [Example 282, 4(4-Methylpiperazin-1-yl)-N-(3-phenylprop-2-yn-1-yl)-1H-benzo[d]imidazole-1-carboxamide], for which the IC50 against acid ceramidase (pH 4.5) was less than 200 nM. For the same compound, in series [1], the solubility was found to be 21 µg/mL (≈ 56.2 µM).

Take `CC(C)Oc1nc2ccccc2n1C(=O)NCCc1ccccc1` [Example 35, 2-iso-Propoxy-N-phenethyl-1H-benzo[d]imidazole-1-carboxamide]: on acid ceramidase (setting [2]), the IC50 was less than 200 nM. The concentration in solution in series [1] (solubility) was 0.7 µg/mL (≈ 2.16 µM).

Take `O=C(NCCCc1ccccc1)n1cnc2ccccc21` [Example 5, N-(3-Phenylpropyl)-1H-benzo[d]imidazole-1-carboxamide]: on acid ceramidase (setting [2]), the IC50 is less than 200 nM. In series [1], this compound came in with a solubility of 13.8 µg/mL (≈ 49.4 µM).

For the compound `CC(C)CCNC(=O)n1cnc2c(N3CCO[C@@H](Cc4ccccc4)C3)cccc21` [Example 174, (S)-4-(2-Benzylmorpholino)-N-iso-pentyl-1H-benzo[d]imidazole-1-carboxamide], the IC50 against acid ceramidase (pH 4.5) is 200 to 1000 nM. In series [1], this compound had a solubility of 1 µg/mL (≈ 2.46 µM).

On acid ceramidase (setting [2]), `CCCCNC(=O)n1c(OCC)nc2c(OC)cccc21` [Example 94, N-Butyl-2-ethoxy-4-methoxy-1H-benzo[d]imidazole-1-carboxamide] gave an IC50 of 200 to 1000 nM. The compound further gave a solubility in series [1] of 11.2 µg/mL (≈ 38.4 µM).

For `C#Cc1ccc(CNC(=O)n2cnc3c(N4CCN(C)CC4)cccc32)cc1` [Example 342, N-(4-Ethynylbenzyl)-4-(4-methylpiperazin-1-yl)-1H-benzo[d]imidazole-1-carboxamide], the IC50 against acid ceramidase (setting [2]) is less than 200 nM. In series [1], this compound had a solubility of 4 µg/mL (≈ 10.7 µM).

`CCCCNC(=O)n1cnc2c(F)cccc21` [Example 68, N-Butyl-4-fluoro-1H-benzo[d]imidazole-1-carboxamide]: the IC50 at acid ceramidase (setting [2]) is less than 200 nM. For the same compound, in series [1], the solubility was found to be 20.6 µg/mL (≈ 87.6 µM).

On acid ceramidase (pH 4.5), `COc1nc2cc(F)c(N3CCN(C4CN(C)C4)CC3)cc2n1C(=O)NCCCc1ccccc1` [Example 319b, 5-fluoro-2-methoxy-6-(4-(1-methylazetidin-3-yl)piperazin-1-yl)-N-(3-phenylpropyl)-1H-benzo[d]imidazole-1-carboxamide] registered an IC50 of 200 to 1000 nM. The amount in solution in series [1] (solubility) came to 46 µg/mL (≈ 95.7 µM).

In turn, `O=C(NCCc1ccccc1)n1cnc2cc(-c3ccccn3)c(Cl)cc21` [Example 7a, 6-Chloro-N-phenethyl-5-(pyridin-2-yl)-1H-benzo[d]imidazole-1-carboxamide] had an IC50 on acid ceramidase (setting [2]) of less than 200 nM. In series [1], this compound returned a solubility of 0.4 µg/mL (≈ 1.06 µM).

At acid ceramidase (setting [2]), `CCOc1nc2c(Cl)cccc2n1C(=O)NCCc1ccccc1` [Example 93, 4-Chloro-2-ethoxy-N-phenethyl-1H-benzo[d]imidazole-1-carboxamide] showed an IC50 of less than 200 nM. The amount in solution in series [1] (solubility) came to 0.05 µg/mL (≈ 0.145 µM).

The compound `CC(C)CCNC(=O)n1cnc2c(N3CC4CC3CN4C)cccc21` (stereo not shown) [Example 159, N-iso-Pentyl-4-(5-methyl-2,5-diazabicyclo[2.2.1]heptan-2-yl)-1H-benzo[d]imidazole-1-carboxamide] yielded a concentration for half-maximal inhibition (IC50) against acid ceramidase (setting [2]) of 200 to 1000 nM. The solubility in series [1] came out at 33 µg/mL (≈ 96.6 µM).
